Laboratory results: patent US11739098B2 (BRISTOL-MYERS SQUIBB COMPANY, priority 2017, dated 2023)

Legend:
Assay type in all cases: cell-based
human TLR7 = target: T1, human TLR7 (Homo sapiens, UniProt Q9NYK1); assay: TLR7 inhibition reporter assay (HEK-Blue cells, SEAP reporter, gardiquimod stimulation); settings: HEK-Blue cells overexpressing human TLR7, SEAP reporter, gardiquimod 7.5 μM
T1 construct: host or cells: HEK-Blue cells (HEK293-derived reporter line)
T1 sequence (Q9NYK1 27-1049): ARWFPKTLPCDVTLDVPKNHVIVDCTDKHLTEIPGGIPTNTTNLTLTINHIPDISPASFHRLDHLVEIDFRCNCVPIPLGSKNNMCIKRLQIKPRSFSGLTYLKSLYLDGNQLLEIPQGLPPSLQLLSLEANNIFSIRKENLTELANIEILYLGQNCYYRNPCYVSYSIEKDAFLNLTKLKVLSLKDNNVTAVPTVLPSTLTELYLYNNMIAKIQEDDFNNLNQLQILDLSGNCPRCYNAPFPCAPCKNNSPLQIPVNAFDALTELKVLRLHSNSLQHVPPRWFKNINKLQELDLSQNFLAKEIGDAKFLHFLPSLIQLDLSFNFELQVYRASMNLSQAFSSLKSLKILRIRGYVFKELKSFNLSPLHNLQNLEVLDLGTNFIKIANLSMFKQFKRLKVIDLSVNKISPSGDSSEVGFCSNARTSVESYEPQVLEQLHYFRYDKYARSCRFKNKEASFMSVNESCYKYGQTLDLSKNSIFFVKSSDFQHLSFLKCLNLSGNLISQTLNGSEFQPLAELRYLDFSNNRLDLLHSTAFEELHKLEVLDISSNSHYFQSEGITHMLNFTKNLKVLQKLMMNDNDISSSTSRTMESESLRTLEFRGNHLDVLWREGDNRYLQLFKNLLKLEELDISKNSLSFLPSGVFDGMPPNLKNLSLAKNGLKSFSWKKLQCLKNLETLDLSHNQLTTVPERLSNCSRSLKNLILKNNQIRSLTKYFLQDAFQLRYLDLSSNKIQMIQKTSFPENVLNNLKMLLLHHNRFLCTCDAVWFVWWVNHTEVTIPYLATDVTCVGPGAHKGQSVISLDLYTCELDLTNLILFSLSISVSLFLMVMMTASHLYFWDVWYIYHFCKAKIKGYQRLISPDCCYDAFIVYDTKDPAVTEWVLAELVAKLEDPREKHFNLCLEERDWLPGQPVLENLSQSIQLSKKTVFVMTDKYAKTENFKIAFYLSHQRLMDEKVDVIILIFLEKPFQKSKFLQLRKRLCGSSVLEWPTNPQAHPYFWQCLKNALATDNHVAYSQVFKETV
Summary of the method: (§1)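 Agonists (final): TLR7 gardiquimod 7.5 μM; TLR8 R848 15.9 μM; TLR9 ODN2006 5 nM. HEK-Blue reporter cells, 30 min RT compound pre-incubation, 0.05 nM–50 μM dose range, 22 h at 37 °C, colorimetric SEAP detection medium. % inhibition relative to agonist+DMSO and known-inhibitor wells.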

human TLR9 = target: T2, human TLR9 (Homo sapiens, UniProt Q9NR96); assay: TLR9 inhibition reporter assay (HEK-Blue cells, SEAP reporter, ODN2006 stimulation); settings: HEK-Blue cells overexpressing human TLR9, SEAP reporter, ODN2006 5 nM
T2 construct: host or cells: HEK-Blue cells (HEK293-derived reporter line)
T2 sequence (Q9NR96 26-1032): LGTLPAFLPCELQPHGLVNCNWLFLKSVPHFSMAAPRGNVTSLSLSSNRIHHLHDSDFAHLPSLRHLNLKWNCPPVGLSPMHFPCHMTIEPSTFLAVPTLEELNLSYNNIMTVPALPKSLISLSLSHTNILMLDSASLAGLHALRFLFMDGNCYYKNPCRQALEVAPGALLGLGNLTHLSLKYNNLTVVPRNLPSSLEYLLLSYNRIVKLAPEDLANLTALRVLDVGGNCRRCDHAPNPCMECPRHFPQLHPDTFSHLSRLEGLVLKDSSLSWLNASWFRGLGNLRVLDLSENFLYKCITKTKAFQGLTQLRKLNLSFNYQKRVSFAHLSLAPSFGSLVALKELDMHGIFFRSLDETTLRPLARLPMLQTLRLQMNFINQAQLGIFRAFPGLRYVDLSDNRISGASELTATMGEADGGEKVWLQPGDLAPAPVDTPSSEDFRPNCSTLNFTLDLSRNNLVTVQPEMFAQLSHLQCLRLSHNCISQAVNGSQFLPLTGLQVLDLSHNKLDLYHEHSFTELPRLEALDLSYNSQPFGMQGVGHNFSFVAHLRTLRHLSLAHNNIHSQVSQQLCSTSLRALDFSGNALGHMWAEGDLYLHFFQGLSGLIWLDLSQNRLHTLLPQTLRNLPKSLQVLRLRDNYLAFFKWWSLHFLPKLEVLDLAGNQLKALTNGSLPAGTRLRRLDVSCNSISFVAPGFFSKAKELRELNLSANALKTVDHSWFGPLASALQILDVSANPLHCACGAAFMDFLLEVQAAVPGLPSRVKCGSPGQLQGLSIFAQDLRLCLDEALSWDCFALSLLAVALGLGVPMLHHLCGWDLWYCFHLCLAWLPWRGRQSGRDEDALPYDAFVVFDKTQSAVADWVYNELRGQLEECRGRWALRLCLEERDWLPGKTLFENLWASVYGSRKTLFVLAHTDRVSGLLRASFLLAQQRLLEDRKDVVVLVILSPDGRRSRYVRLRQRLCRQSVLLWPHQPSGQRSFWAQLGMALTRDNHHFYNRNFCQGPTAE
Summary of the method: as §1

human TLR8 = target: T3, human TLR8 (Homo sapiens, UniProt Q9NR97); assay: TLR8 inhibition reporter assay (HEK-Blue cells, SEAP reporter, R848 stimulation); settings: HEK-Blue cells overexpressing human TLR8, SEAP reporter, R848 15.9 μM
T3 construct: host or cells: HEK-Blue cells (HEK293-derived reporter line)
T3 sequence (Q9NR97 27-1041): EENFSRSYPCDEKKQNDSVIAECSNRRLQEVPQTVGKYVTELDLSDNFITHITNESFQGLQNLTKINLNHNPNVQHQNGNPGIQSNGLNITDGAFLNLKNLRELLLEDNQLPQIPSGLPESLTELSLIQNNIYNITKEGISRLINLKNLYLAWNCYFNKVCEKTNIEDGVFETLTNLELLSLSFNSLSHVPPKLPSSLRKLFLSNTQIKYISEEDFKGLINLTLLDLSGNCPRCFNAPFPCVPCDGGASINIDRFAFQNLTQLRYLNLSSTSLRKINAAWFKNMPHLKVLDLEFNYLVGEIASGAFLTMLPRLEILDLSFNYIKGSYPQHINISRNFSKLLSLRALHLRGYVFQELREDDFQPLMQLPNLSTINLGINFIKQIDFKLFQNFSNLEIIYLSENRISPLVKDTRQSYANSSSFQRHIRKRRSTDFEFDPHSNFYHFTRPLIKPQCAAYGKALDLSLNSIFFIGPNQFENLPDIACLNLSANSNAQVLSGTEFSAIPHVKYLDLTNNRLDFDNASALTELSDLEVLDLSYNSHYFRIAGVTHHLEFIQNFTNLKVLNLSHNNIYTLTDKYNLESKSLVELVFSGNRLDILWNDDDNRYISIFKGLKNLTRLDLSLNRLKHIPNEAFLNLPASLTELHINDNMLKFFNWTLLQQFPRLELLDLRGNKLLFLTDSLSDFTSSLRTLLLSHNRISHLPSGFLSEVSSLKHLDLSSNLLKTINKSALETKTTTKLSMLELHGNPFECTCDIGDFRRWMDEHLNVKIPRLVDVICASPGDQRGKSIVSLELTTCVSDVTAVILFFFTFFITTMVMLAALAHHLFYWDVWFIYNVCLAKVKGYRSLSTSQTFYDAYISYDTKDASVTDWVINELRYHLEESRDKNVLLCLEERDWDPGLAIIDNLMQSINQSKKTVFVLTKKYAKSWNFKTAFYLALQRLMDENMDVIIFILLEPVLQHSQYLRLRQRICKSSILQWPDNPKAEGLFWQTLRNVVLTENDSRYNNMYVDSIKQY
Summary of the method: as §1

Compound | IC50 (human TLR7) | IC50 (human TLR9) | IC50 (human TLR8)
CCc1c(-c2ccnc3[nH]ncc23)[nH]c2ccc(C3CCN(Cc4csc(C(C)C)n4)CC3)cc12 [Example 859, 4-((4-(3-ethyl-2-(1H-pyrazolo[3,4-b]pyridin-4-yl)-1H-indol-5-yl)piperidin-1-yl)methyl)-2-isopropylthiazole] | 100 to 1000 nM | 1000 to 50000 nM | 100 to 1000 nM
CNC(=O)CN1CCC(c2ccc3[nH]c(-c4ccc5ncc(C#N)n5c4)c(C(C)C)c3c2)CC1 [Example 390, 2-(4-(2-(3-cyanoimidazo[1,2-a]pyridin-6-yl)-3-isopropyl-1H-indol-5-yl)piperidin-1-yl)-N-methylacetamide] | 100 to 1000 nM | > 50000 nM | 100 to 1000 nM
Cc1cc(-c2[nH]c3ccc(C4CCN(CC(=O)N(C)C)CC4)cc3c2C(C)C)cc2nccn12 [Example 354, 2-(4-(3-isopropyl-2-(5-methylimidazo[1,2-a]pyridin-7-yl)-1H-indol-5-yl)piperidin-1-yl)-N,N-dimethylacetamide] | 100 to 1000 nM | 100 to 1000 nM | 100 to 1000 nM
Cc1cc(-c2[nH]c3ccc(C4CCNCC4)cc3c2C(C)C)cc2nccn12 [Example 161, 7-(3-isopropyl-5-(piperidin-4-yl)-1H-indol-2-yl)-5-methylimidazo[1,2-a]pyridine] | 100 to 1000 nM | 100 to 1000 nM | < 100 nM
Cc1cn2cc(-c3[nH]c4ccc(C5CCN(C(=O)C[C@@H](C)O)CC5)cc4c3CC(F)F)ccc2n1 [Example 609, (R)-1-(4-(3-(2,2-difluoroethyl)-2-(2-methylimidazo[1,2-a]pyridin-6-yl)-1H-indol-5-yl)piperidin-1-yl)-3-hydroxybutan-1-one] | 100 to 1000 nM | 1000 to 50000 nM | > 3130 nM
CC(C)c1c(-c2ccnc3[nH]ncc23)[nH]c2ccc(C3CCN(C(=O)C4CCCNC4)CC3)cc12 (stereo not drawn) [Example 636, (4-(3-isopropyl-2-(1H-pyrazolo[3,4-b]pyridin-4-yl)-1H-indol-5-yl)piperidin-1-yl)(piperidin-3-yl)methanone] | < 100 nM | 100 to 1000 nM | < 100 nM
CCN(CC)C(=O)C1CCCN(CC(=O)N2CCC(c3ccc4[nH]c(-c5ccnc6[nH]ccc56)c(C(C)C)c4c3)CC2)C1 (stereo not drawn) [Example 569, N,N-diethyl-1-(2-(4-(3-isopropyl-2-(1H-pyrrolo[2,3-b]pyridin-4-yl)-1H-indol-5-yl)piperidin-1-yl)-2-oxoethyl)piperidine-3-carboxamide] | < 100 nM | 100 to 1000 nM | < 100 nM

The remaining lines, values ahead:

IC50 (human TLR7) | IC50 (human TLR9) | IC50 (human TLR8) | Compound
< 100 nM | 1000 to 50000 nM | 100 to 1000 nM | CC(C)c1c(-c2ccn3nncc3c2)[nH]c2ccc(C3CCN(CC(=O)N(C)C)CC3)cc12 [Example 302, 2-(4-(2-([1,2,3]triazolo[1,5-a]pyridin-5-yl)-3-isopropyl-1H-indol-5-yl)piperidin-1-yl)-N,N-dimethylacetamide]
< 100 nM | < 100 nM | 100 to 1000 nM | FC(F)Cc1c(-c2ccn3ccnc3c2)[nH]c2ccc(C3CCNCC3)cc12 [Example 189, 7-(3-(2,2-difluoroethyl)-5-(piperidin-4-yl)-1H-indol-2-yl)imidazo[1,2-a]pyridine]
< 100 nM | 1000 to 50000 nM | < 100 nM | Cc1cc(-c2[nH]c3ccc(C4CCN(C5CCOCC5)CC4)cc3c2C(C)C)cn2nnnc12 [Example 698, 6-(3-isopropyl-5-(1-(tetrahydro-2H-pyran-4-yl)piperidin-4-yl)-1H-indol-2-yl)-8-methyltetrazolo[1,5-a]pyridine]
< 100 nM | 1000 to 50000 nM | < 100 nM | Cc1nnn2ccc(-c3[nH]c4ccc(C5CCN(CC(N)=O)CC5)cc4c3C(C)C)cc12 [Example 317, 2-(4-(3-isopropyl-2-(3-methyl-[1,2,3]triazolo[1,5-a]pyridin-5-yl)-1H-indol-5-yl)piperidin-1-yl)acetamide]
< 100 nM | 1000 to 50000 nM | < 100 nM | Cc1cc2cc(-c3[nH]c4ccc(C5CCN(CC(=O)N(C)C)CC5)cc4c3C(C)C)cc(C)n2n1 [Example 420, 2-(4-(2-(2,7-dimethylpyrazolo[1,5-a]pyridin-5-yl)-3-isopropyl-1H-indol-5-yl)piperidin-1-yl)-N,N-dimethylacetamide]
< 100 nM | 1000 to 50000 nM | < 100 nM | Cc1cc(-c2[nH]c3ccc(C4CCN(C(=O)CCN5CCCCC5)CC4)cc3c2C(C)C)cn2nnnc12 [Example 629, 1-(4-(3-isopropyl-2-(8-methyltetrazolo[1,5-a]pyridin-6-yl)-1H-indol-5-yl)piperidin-1-yl)-3-(piperidin-1-yl)propan-1-one]
< 100 nM | 1000 to 50000 nM | < 100 nM | Cc1nnn2ccc(-c3[nH]c4ccc(C5CCN(CC(=O)N(C)C)CC5)cc4c3C(C)C)cc12 [Example 318, 2-(4-(3-isopropyl-2-(3-methyl-[1,2,3]triazolo[1,5-a]pyridin-5-yl)-1H-indol-5-yl)piperidin-1-yl)-N,N-dimethylacetamide]
